Laboratory results from paper PMC8228121, “Super-Cationic Peptide Dendrimers—Synthesis and Evaluation as Antimicrobial Agents” (Antibiotics, 2021).
In brackets after ≈: the same amount, converted by molar mass. Bridge positions count the residues as written; N and C are the ends. Side chains are listed from the residue outwards. Peptide text beside a SMILES is read from it. I, II: the chains in the order shown. * marks the point of attachment. Lauroyl = CCCCCCCCCCCC(=O)*; Hexanoyl = CCCCCC(=O)*

How the values were obtained:
[1] = test system: S. aureus ATCC 29213; experiment: microbe, parasite or virus in culture; format: cell-based, Staphylococcus aureus; details: ATCC 29213
Description: (§1) Clinical isolates of CRE, MRSA and VRE were obtained from Lancet Laboratories, Durban, South Africa, with approval BE394/15 from the Biomedical Research Ethical Committee of the University of KwaZulu-Natal. Five reference strains of bacteria, namely Escherichia coli ATCC 25922, Pseudomonas aeruginosa ATCC 27853, Enterococcus faecium ATCC 35667, Staphylococcus aureus ATCC 29213 and Bacillus subtilis ATCC 6051 were supplied by the American Type Culture Collection (ATCC).
(§2) MIC values were determined by the broth microdilution method and the significance of the values obtained was interpreted following the guidelines of the Clinical and Laboratory Standards for Antimicrobial Susceptibility Testing.. The effect of human serum on the antimicrobial effect of the molecules tested was determined in a similar way to the MIC method used above in a solution of 50% human serum plus Mueller–Hinton broth.

[2] = test system: B. subtilis ATCC 6051; experiment: microbe, parasite or virus in culture; format: cell-based, Bacillus subtilis; details: ATCC 6051
Description: as §1, §2

[3] = test system: E. faecium ATCC 35667; experiment: microbe, parasite or virus in culture; format: cell-based, Enterococcus faecium; details: ATCC 35667
Description: as §1, §2

[4] = test system: E. coli ATCC 25822; experiment: microbe, parasite or virus in culture; format: cell-based, Escherichia coli; details: ATCC 25822
Description: as §1, §2

[5] = test system: P. aeruginosa ATCC 27853; experiment: microbe, parasite or virus in culture; format: cell-based, Pseudomonas aeruginosa; details: ATCC 27853
Description: as §1, §2

[6] = MTT cytotoxicity assay; format: cell-based, human; details: human, HepG2 cells, HepG2, 24 h exposure
Description: (§3) Cell viability was evaluated using the colorimetric MTT assay [21]. Human hepatocarcinoma (HepG2) cells and human embryonic kidney 293 (HEK-293) cells used in the drug toxicity assays were obtained from Cellonex (Johannesburg, South Africa). Viable HepG2 and HEK293 cells (20,000 cells/well) were seeded into a 96-well microtiter plate (200 µL) and allowed to attach overnight. The cells were exposed to varying concentrations of the peptides for 24 h. After removal of the treatment medium, 20 µL of MTT salt solution (5 mg/mL in 0.1M phosphate buffer saline (PBS)) and 100 µL of complete cell culture medium (CCM) were added to each well. After a 4 h (37 °C) incubation, the MTT salt solution was discarded and 100 μL of dimethyl sulphoxide (DMSO) were added to each well (1 h, 37 °C). The optical density of the solubilized formazan product was measured at 570 nm (reference λ of 690 nm) using a Bio-tek μQuant spectrophotometer (Winooski, VT, USA). […] GraphPad Prism (V5) (La Jolla, CA, USA) was used to obtain the half maximum inhibitory concentration (IC50) for each compound.

[7] = in vitro; details: human
Description: as §3

[8] = test system: MRSA (methicillin-resistant S. aureus) isolates; experiment: microbe, parasite or virus in culture; format: cell-based
Description: as §1, §2

[9] = test system: VRE, E. faecium isolates; experiment: microbe, parasite or virus in culture; format: cell-based
Description: as §1, §2

[10] = methicillin-resistant ) isolates

Compound	MBC [1]	MIC [1]	MBC [2]	MIC [2]	MBC [3]	MIC [3]	MBC [4]	MIC [4]	MBC [5]	MIC [5]	other results
CC(C)C[C@H](NC(=O)[C@H](CC(C)C)NC(=O)[C@H](CCCNC(=N)N)NC(=O)[C@H](CC(C)C)NC(=O)[C@H](CC(C)C)NC(=O)[C@H](CCCCNC(=O)[C@H](CCCNC(=N)N)NC(=O)[C@H](CC(C)C)NC(=O)[C@@H](N)CCCNC(=N)N)NC(=O)[C@H](CCCNC(=N)N)NC(=O)[C@H](CC(C)C)NC(=O)[C@@H](N)CCCNC(=N)N)C(N)=O [G1RLR-L2RL2, (RLR)2KLLRLL-NH2] (H-RLRK([Arg-Leu-Arg])LLRLL-NH2)	16 µg/mL (≈ 9.97 µM)	16 µg/mL (≈ 9.97 µM)	32 µg/mL (≈ 19.9 µM)	32 µg/mL (≈ 19.9 µM)	4 µg/mL (≈ 2.49 µM)	4 µg/mL (≈ 2.49 µM)	8 µg/mL (≈ 4.98 µM)	8 µg/mL (≈ 4.98 µM)	16 µg/mL (≈ 9.97 µM)	16 µg/mL (≈ 9.97 µM)	IC50 at 24 h [6]: 328 µg/mL (≈ 204 µM); IC50 at 24 h [7]: 153 µg/mL (≈ 95.3 µM)
CCCCCCCCCCCC(=O)N[C@@H](CCCCN)C(=O)N[C@@H](CC(C)C)C(=O)N[C@@H](CCCCN)C(=O)NCCCC[C@H](NC(=O)[C@H](CCCCN)NC(=O)[C@H](CC(C)C)NC(=O)[C@H](CCCCN)NC(=O)CCCCCCCCCCC)C(=O)N[C@@H](CCCCN)C(=O)N[C@@H](CC(C)C)C(=O)N[C@@H](CCCCN)C(=O)NCCCC[C@H](NC(=O)[C@H](CCCCN)NC(=O)[C@H](CC(C)C)NC(=O)[C@H](CCCCN)NC(=O)[C@H](CCCCNC(=O)[C@H](CCCCN)NC(=O)[C@H](CC(C)C)NC(=O)[C@H](CCCCN)NC(=O)CCCCCCCCCCC)NC(=O)[C@H](CCCCN)NC(=O)[C@H](CC(C)C)NC(=O)[C@H](CCCCN)NC(=O)CCCCCCCCCCC)C(=O)N[C@@H](CC(C)C)C(=O)N[C@@H](CC(C)C)C(=O)N[C@@H](CCCCN)C(=O)N[C@@H](CC(C)C)C(=O)N[C@@H](CC(C)C)C(N)=O [Dd-G2KLK-L2KL2, (Dd-KLK)4(KKLK)2KLLKLL-NH2] (I: Lauroyl-KLKK([Lys-Leu-Lys-Lauroyl])KLKKLLKLL-NH2 / II: Lauroyl-KLKK([Lys-Leu-Lys-Lauroyl])KLK; amide I:8-II:C; N-terminus assumed)	–	>128 µg/mL	–	>128 µg/mL	–	>128 µg/mL	–	>128 µg/mL	–	>128 µg/mL	–
CN[C@H](CC(C)C)C(=O)N[C@H]1C(=O)N[C@@H](CC(N)=O)C(=O)N[C@H]2C(=O)N[C@H]3C(=O)N[C@H](C(=O)N[C@H](C(=O)O)c4cc(O)cc(O)c4-c4cc3ccc4O)[C@H](O)c3ccc(c(Cl)c3)Oc3cc2cc(c3O[C@@H]2O[C@H](CO)[C@@H](O)[C@H](O)[C@H]2O[C@H]2C[C@](C)(N)[C@H](O)[C@H](C)O2)Oc2ccc(cc2Cl)[C@H]1O [Van, vancomycin, reference compound]	–	–	–	–	–	–	–	–	–	–	MIC ([8]; MRSA isolate B11970): 1 µg/mL (≈ 0.69 µM); MIC ([8]; MRSA isolate B13178): 1 µg/mL (≈ 0.69 µM); MIC ([8]; MRSA isolate P10747): 1 µg/mL (≈ 0.69 µM); MIC ([8]; MRSA isolate P10781): 1 µg/mL (≈ 0.69 µM); MIC ([8]; MRSA isolate P11520): 1 µg/mL (≈ 0.69 µM); MIC ([8]; MRSA isolate S18155): 1 µg/mL (≈ 0.69 µM); MIC ([8]; MRSA isolate S37938): 1 µg/mL (≈ 0.69 µM); MIC ([8]; MRSA isolate T5683): 1 µg/mL (≈ 0.69 µM); MIC ([8]; Staphylococcus aureus): 1 µg/mL (≈ 0.69 µM); MIC ([8]; Staphylococcus aureus, MRSA): 1 µg/mL (≈ 0.69 µM); MIC ([9]; Enterococcus faecium): > 128 µg/mL; MIC ([9]; Enterococcus faecium, VRE): > 128 µg/mL; MIC ([9]; VRE E. faecium isolate 938072607): >128 µg/mL; MIC ([9]; VRE E. faecium isolate 938600912): >128 µg/mL; MIC ([9]; VRE E. faecium isolate 938636470): >128 µg/mL; MIC ([9]; VRE E. faecium isolate 938666613): >128 µg/mL; MIC ([9]; VRE E. faecium isolate 945530665): >128 µg/mL; MIC ([9]; VRE E. faecium isolate 951208931): >128 µg/mL; MIC ([9]; VRE E. faecium isolate 951234856): >128 µg/mL; MIC ([9]; VRE E. faecium isolate 951245262): >128 µg/mL
CC(=O)N[C@@H](CCCCN)C(=O)N[C@@H](CC(C)C)C(=O)N[C@@H](CCCCN)C(=O)NCCCC[C@H](NC(=O)[C@H](CCCCN)NC(=O)[C@H](CC(C)C)NC(=O)[C@H](CCCCN)NC(C)=O)C(=O)N[C@@H](CCCCN)C(=O)N[C@@H](CC(C)C)C(=O)N[C@@H](CCCCN)C(=O)NCCCC[C@H](NC(=O)[C@H](CCCCN)NC(=O)[C@H](CC(C)C)NC(=O)[C@H](CCCCN)NC(=O)[C@H](CCCCNC(=O)[C@H](CCCCN)NC(=O)[C@H](CC(C)C)NC(=O)[C@H](CCCCN)NC(C)=O)NC(=O)[C@H](CCCCN)NC(=O)[C@H](CC(C)C)NC(=O)[C@H](CCCCN)NC(C)=O)C(=O)N[C@@H](CC(C)C)C(=O)N[C@@H](CC(C)C)C(=O)N[C@@H](CCCCN)C(=O)N[C@@H](CC(C)C)C(=O)N[C@@H](CC(C)C)C(N)=O [Ac-G2KLK-L2KL2, (Ac-KLK)4(KKLK)2KLLKLL-NH2] (I: Ac-KLKK([Lys-Leu-Lys-Ac])KLKKLLKLL-NH2 / II: Ac-KLKK([Lys-Leu-Lys-Ac])KLK; amide I:8-II:C)	128 µg/mL (≈ 38 µM)	64 µg/mL (≈ 19 µM)	16 µg/mL (≈ 4.75 µM)	8 to 16 µg/mL	128 µg/mL (≈ 38 µM)	64 µg/mL (≈ 19 µM)	16 µg/mL (≈ 4.75 µM)	8 to 16 µg/mL	16 µg/mL (≈ 4.75 µM)	8 to 16 µg/mL	MIC [8, 10]: 128 µg/mL (≈ 38 µM)
CC1(C)S[C@@H]2[C@H](NC(=O)[C@H](N)c3ccccc3)C(=O)N2[C@H]1C(=O)O [Amp, reference compound]	–	–	–	–	–	–	–	–	–	–	MIC ([8]; MRSA isolate 440260): >512 µg/mL; MIC ([8]; MRSA isolate B11970): >512 µg/mL; MIC ([8]; MRSA isolate B13178): >512 µg/mL; MIC ([8]; MRSA isolate P10747): >512 µg/mL; MIC ([8]; MRSA isolate P10781): >512 µg/mL; MIC ([8]; MRSA isolate P11520): 512 µg/mL (≈ 1470 µM); MIC ([8]; MRSA isolate S18155): >512 µg/mL; MIC ([8]; MRSA isolate S18970): >512 µg/mL; MIC ([8]; MRSA isolate S37938): >512 µg/mL; MIC ([8]; MRSA isolate T5683): >512 µg/mL
I: H-KLKK([Lys-Leu-Lys])KLKKKLKKLLKLL-NH2 / II: H-KLKK([Lys-Leu-Lys])KLKKKLK / III: H-KLKK([Lys-Leu-Lys])KLK / IV: H-KLKK([Lys-Leu-Lys])KLK (amide I:8-IV:C, I:12-II:C, II:8-III:C) [G3KLK-L2KL2, (KLK)8(KKLK)4(KKLK)2KLLKLL-NH2]	16 µg/mL	16 µg/mL	8 µg/mL	4 to 8 µg/mL	64 µg/mL	64 µg/mL	32 µg/mL	32 µg/mL	16 µg/mL	16 µg/mL	IC50 at 24 h [6]: 25.7 µg/mL; IC50 at 24 h [7]: 53.9 µg/mL
CCCCCC(=O)N[C@@H](CCCCN)C(=O)N[C@@H](CC(C)C)C(=O)N[C@@H](CCCCN)C(=O)NCCCC[C@H](NC(=O)[C@H](CCCCN)NC(=O)[C@H](CC(C)C)NC(=O)[C@H](CCCCN)NC(=O)CCCCC)C(=O)N[C@@H](CCCCN)C(=O)N[C@@H](CC(C)C)C(=O)N[C@@H](CCCCN)C(=O)NCCCC[C@H](NC(=O)[C@H](CCCCN)NC(=O)[C@H](CC(C)C)NC(=O)[C@H](CCCCN)NC(=O)[C@H](CCCCNC(=O)[C@H](CCCCN)NC(=O)[C@H](CC(C)C)NC(=O)[C@H](CCCCN)NC(=O)CCCCC)NC(=O)[C@H](CCCCN)NC(=O)[C@H](CC(C)C)NC(=O)[C@H](CCCCN)NC(=O)CCCCC)C(=O)N[C@@H](CC(C)C)C(=O)N[C@@H](CC(C)C)C(=O)N[C@@H](CCCCN)C(=O)N[C@@H](CC(C)C)C(=O)N[C@@H](CC(C)C)C(N)=O [Hx-G2KLK-L2KL2, (Hx-KLK)4(KKLK)2KLLKLL-NH2] (I: Hexanoyl-KLKK([Lys-Leu-Lys-Hexanoyl])KLKKLLKLL-NH2 / II: Hexanoyl-KLKK([Lys-Leu-Lys-Hexanoyl])KLK; amide I:8-II:C; N-terminus assumed)	128 µg/mL (≈ 35.6 µM)	128 µg/mL (≈ 35.6 µM)	128 µg/mL (≈ 35.6 µM)	64 µg/mL (≈ 17.8 µM)	64 µg/mL (≈ 17.8 µM)	32 µg/mL (≈ 8.91 µM)	64 µg/mL (≈ 17.8 µM)	64 µg/mL (≈ 17.8 µM)	64 µg/mL (≈ 17.8 µM)	64 µg/mL (≈ 17.8 µM)	MIC [8, 10]: 64 µg/mL (≈ 17.8 µM)
